Data on 23 compounds can be found in US10689414B2 (Agios Pharmaceuticals, Inc., priority 2013, dated 2020).

SMILES strings stand for the structures. Bounds are passed on as bounds.

The subject of one assay is U87MG cells. Kind of assay: Cellular assay, inhibition of 2-HG production in U87MG cells. It is filed as cell-based. To be noted: Homo sapiens, U-87 MG, 48 h. How it is done:
Cells (HT1080 or U87MG) are grown in T125 flasks in DMEM containing 10% FBS, 1× penicillin/streptomycin and 500 ug/mL G418 (present in U87MG cells only). They are harvested by trypsin and seeded into 96 well white bottom plates at a density of 5000 cell/well in 100 ul/well in DMEM with 10% FBS. […] Cells are incubated overnight at 37° C. in 5% CO2. The next day test compounds are made up at 2× the final concentration and 100 ul are added to each cell well. The final concentration of DMSO is 0.2% and the DMSO control wells are plated in row G. The plates are then placed in the incubator for 48 hours. […] The cell plate is placed back in the incubator for another 24 hours. At 72 hours post compound addition, 10 mL/plate of Promega Cell Titer Glo reagent is thawed and mixed. The cell plate is removed from the incubator and allowed to equilibrate to room temperature. Then 100 ul of Promega Cell Titer Glo reagent is added to each well of media. The cell plate is then placed on an orbital shaker for 10 minutes and then allowed to sit at room temperature for 20 minutes. The plate is then read for luminescence with an integration time of 500 ms.
As usually defined, the IC50 is the concentration needed to halve the response being measured. Read a low IC50 as greater potency in that assay. `N#Cc1ccnc(N2C(=O)[C@H](O)C[C@H]2C(=O)N(c2cc(F)cc(F)c2)[C@@H](C(=O)NC2CC(F)(F)C2)c2ccccc2Cl)n1` [Compound 116, (2S,4R)—N—((R)-1-(2-Chlorophenyl)-2-((3,3-difluorocyclobutyl)amino)-2-oxoethyl)-1-(4-cyanopyrimidin-2-yl)-N-(3,5-difluorophenyl)-4-hydroxy-5-oxopyrrolidine-2-carboxamide] gave a 50% inhibitory concentration (IC50) of 100 to 500 nM.
Still for that read-out and setting: in the case of `N#Cc1ccnc(N2C(=O)CC[C@H]2C(=O)N(c2cccc(F)c2)[C@H](C(=O)NC2CCC(F)(F)CC2)c2ccccc2Cl)c1` [Compound 53] it was below 100 nM; in that of `CS(=O)(=O)Nc1cccc(N(C(=O)[C@@H]2CCC(=O)N2c2cc(C#N)ccn2)[C@H](C(=O)NC2CC(F)(F)C2)c2ccccc2Cl)c1` [Compound 159, (S)—N—((S)-1-(2-Chlorophenyl)-2-(3,3-difluorocyclobutylamino)-2-oxoethyl)-1-(4-cyanopyridin-2-yl)-N-(3-(methylsulfonamido)phenyl)-5-oxopyrrolidine-2-carboxamide], below 100 nM; in that of `CS(=O)(=O)c1cc(F)cc(N(C(=O)[C@@H]2CCC(=O)N2c2nccc(C#N)n2)[C@H](C(=O)NC2CCC(F)(F)CC2)c2ccccc2Cl)c1` [Compound 168, (S)—N—((S)-1-(2-Chlorophenyl)-2-((4,4-difluorocyclohexyl)amino)-2-oxoethyl)-1-(4-cyanopyrimidin-2-yl)-N-(3-fluoro-5-(methylsulfonyl)phenyl)-5-oxopyrrolidine-2-carboxamide], below 100 nM.
`N#Cc1ccnc(N2C(=O)CC[C@H]2C(=O)N(c2cncc(F)c2)[C@H](C(=O)NC2CC(F)(F)C2)c2ccccc2F)c1` [Compound 148, (S)-1-(4-Cyanopyridin-2-yl)-N—((S)-2-((3,3-difluorocyclobutyl)amino)-1-(2-fluorophenyl)-2-oxoethyl)-N-(5-fluoropyridin-3-yl)-5-oxopyrrolidine-2-carboxamide] registered an IC50 below 100 nM.
Consider `N#Cc1ccnc(N2C(=O)[C@@H](O)C[C@H]2C(=O)N(c2cccc(F)c2)[C@H](C(=O)NC2CCC(F)(F)CC2)c2ccccc2Cl)n1` [Compound 189, (2S,4S)—N—((S)-1-(2-Chlorophenyl)-2-((4,4-difluorocyclohexyl)amino)-2-oxoethyl)-1-(4-cyanopyrimidin-2-yl)-N-(3-fluorophenyl)-4-hydroxy-5-oxopyrrolidine-2-carboxamide], for which the IC50 is below 100 nM.
As to `CCOC(=O)CN1CC(=O)N(c2cc(C#N)ccn2)[C@H](C(=O)N(c2cc(F)cc(F)c2)[C@H](C(=O)NC2CC(F)(F)C2)c2ccccc2Cl)C1` [Compound 104], the half-maximal inhibitory concentration (IC50) was below 100 nM.
`N#Cc1ccnc(N2C(=O)OCC[C@H]2C(=O)N(c2cc(F)cc(F)c2)[C@H](C(=O)NC2CC(F)(F)C2)c2ccccc2Cl)c1` [Compound 133, (S)—N—((S)-1-(2-Chlorophenyl)-2-((3,3-difluorocyclobutyl)amino)-2-oxoethyl)-3-(4-cyanopyridin-2-yl)-N-(3,5-difluorophenyl)-2-oxo-1,3-oxazinane-4-carboxamide] showed an IC50 below 100 nM.
`N#Cc1cnc(N2C(=O)CC[C@H]2C(=O)N(c2cc(F)cc(F)c2)[C@H](C(=O)NC2CC(F)(F)C2)c2ccccc2Cl)o1` [Compound 162, (S)—N—((S)-1-(2-chlorophenyl)-2-((3,3-difluorocyclobutyl)amino)-2-oxoethyl)-1-(5-cyanooxa-zol-2-yl)-N-(3,5-difluorophenyl)-5-oxopyrrolidine-2-carboxamide]: the IC50 is below 100 nM.
On to `N#Cc1ccnc(N2C(=O)[C@H](O)C[C@H]2C(=O)N(c2cccc(F)c2)[C@H](C(=O)NC2CC(F)(F)C2)c2ccccc2Cl)n1` [Compound 120, (2S,4R)—N—((S)-1-(2-Chlorophenyl)-2-((3,3-difluorocyclobutyl)amino)-2-oxoethyl)-1-(4-cyanopyrimidin-2-yl)-N-(3-fluorophenyl)-4-hydroxy-5-oxopyrrolidine-2-carboxamide], for which the 50% inhibitory concentration (IC50) lay in the range of 100 to 500 nM.
On the same count and under the same terms, as for `CS(=O)(=O)c1cccc(N(C(=O)[C@@H]2CCC(=O)N2c2cc(C#N)ccn2)C(C(=O)NC2CCC(F)(F)CC2)c2ccccc2Cl)c1` (stereo partly drawn) [Compound 95, (2S)—N-(1-(2-Chlorophenyl)-2-((4,4-difluorocyclohexyl)amino)-2-oxoethyl)-1-(4-cyanopyridin-2-yl)-N-(3-(methylsulfonyl)phenyl)-5-oxopyrrolidine-2-carboxamide], the figure is below 100 nM; as for `N#Cc1ccnc(N2C(=O)[C@H](O)C[C@H]2C(=O)N(c2cc(F)cc(F)c2)[C@H](C(=O)NC2CCC(F)(F)CC2)c2ccccc2Cl)c1` [Compound 125, (2S,4R)—N—((S)-1-(2-Chlorophenyl)-2-(4,4-difluorocyclohexylamino)-2-oxoethyl)-1-(4-cyanopyridin-2-yl)-N-(3,5-difluorophenyl)-4-hydroxy-5-oxopyrrolidine-2-carboxamide], below 100 nM.
The compound `N#Cc1cc(F)cc(N(C(=O)[C@@H]2CCC(=O)N2c2cc(C#N)ccn2)[C@H](C(=O)NC2CC(F)(F)C2)c2ccccc2)c1` [Compound 211, (S)—N-(3-Cyano-5-fluorophenyl)-1-(4-cyanopyridin-2-yl)-N—((S)-2-(3,3-difluorocyclobutyl-amino)-2-oxo-1-phenylethyl)-5-oxopyrrolidine-2-carboxamide] showed an IC50 below 100 nM.
`N#Cc1ccnc(N2C(=O)CC[C@H]2C(=O)N(c2cc(F)cc(F)c2)[C@H](C(=O)NC2CCC(F)(F)CC2)c2ccccc2Cl)c1` [Compound 81, (2S)—N-(1-(2-Chlorophenyl)-2-(4,4-difluorocyclohexylamino)-2-oxoethyl)-1-(4-cyanopyridin-2-yl)-N-(3,5-difluorophenyl)-5-oxopyrrolidine-2-carboxamide] returned a 50% inhibitory concentration (IC50) below 100 nM.
The same measure, in the same setting: as for `N#Cc1ccnc(N2C(=O)[C@@H](O)C[C@H]2C(=O)N(c2cc(F)cc(F)c2)[C@H](C(=O)NC2CC(F)(F)C2)c2ccccc2Cl)c1` [Compound 171, (2S,4S)—N—((S)-1-(2-Chlorophenyl)-2-((3,3-difluorocyclobutyl)amino)-2-oxoethyl)-1-(4-cyano-pyridin-2-yl)-N-(3,5-difluorophenyl)-4-hydroxy-5-oxopyrrolidine-2-carboxamide], the figure is below 100 nM; as for `O=C(NC1CC(F)(F)C1)C(c1ccccc1Cl)N(C(=O)[C@@H]1CCC(=O)N1c1ccccc1)c1cccc(F)c1` (some centres unmarked) [Compound 23], 100 to 500 nM.
`O=C(NC1CCC(F)(F)CC1)[C@H](c1ccccc1Cl)N(C(=O)[C@@H]1CCC(=O)N1c1cnccn1)c1cccc(F)c1` [Compound 58, (S)—N—((S)-1-(2-Chlorophenyl)-2-(4,4-difluorocyclohexylamino)-2-oxoethyl)-N-(3-fluorophenyl)-5-oxo-1-(pyrazin-2-yl)pyrrolidine-2-carboxamide]: the IC50 is below 100 nM.
Same read-out and setting: in the case of `CC(C)(C)OC(=O)N1CC(=O)N(c2nccc(C#N)n2)[C@H](C(=O)N(c2cc(F)cc(F)c2)[C@H](C(=O)NC2CC(F)(F)C2)c2ccccc2Cl)C1` [Compound 98, (3S)-tert-butyl 3-((1-(2-chlorophenyl)-2-((3,3-difluorocyclobutyl)amino)-2-oxoethyl)(3,5-difluorophenyl)carbamoyl)-4-(4-cyanopyrimidin-2-yl)-5-oxopiperazine-1-carboxylate] it was below 100 nM; in that of `N#Cc1cc(F)cc(N(C(=O)[C@@H]2CCC(=O)N2c2nccc(C#N)n2)[C@H](C(=O)NC2CCC(F)(F)CC2)c2ccccc2Cl)c1` [Compound 185, (S)—N—((S)-1-(2-Chlorophenyl)-2-((4,4-difluorocyclohexyl)amino)-2-oxoethyl)-N-(3-cyano-5-fluorophenyl)-1-(4-cyanopyrimidin-2-yl)-5-oxopyrrolidine-2-carboxamide], below 100 nM.
The compound `N#Cc1ccnc(N2C(=O)CC[C@H]2C(=O)N(c2cccc(F)c2)[C@H](C(=O)NC2CC(F)(F)C2)c2ccccc2Cl)c1` [Compound 37] showed an IC50 below 100 nM.
Still for that read-out and setting: as for `CCOC(=O)CN1C[C@@H](C(=O)N(c2cccc(F)c2)C(C(=O)NC2CC(F)(F)C2)c2ccccc2Cl)N(c2nccc(C#N)n2)C1=O` (stereo partly drawn) [Compound 111, Ethyl 2-((4S)-4-((1-(2-chlorophenyl)-2-((3,3-difluorocyclobutyl)amino)-2-oxoethyl)(3-fluorophenyl)carbamoyl)-3-(4-cyanopyrimidin-2-yl)-2-oxoimidazolidin-1-yl)acetate], the figure is below 100 nM; as for `N#Cc1cc(F)cc(N(C(=O)[C@@H]2C[C@@H](O)C(=O)N2c2cc(C#N)ccn2)C(C(=O)NC2CC(F)(F)C2)c2ccccc2Cl)c1` (mixture of isomers) [Compound 169, (2S,4R)—N-(1-(2-Chlorophenyl)-2-(3,3-difluorocyclobutylamino)-2-oxoethyl)-N-(3-cyano-5-fluorophenyl)-1-(4-cyanopyridin-2-yl)-4-hydroxy-5-oxopyrrolidine-2-carboxamide], below 100 nM.

The assay is the same for the next values; noted with them: inhibition of 2-HG production, U87MG cells, 48 hours.
Consider `N#Cc1ccnc(N2C(=O)CC[C@H]2C(=O)N(c2cccc(C3(O)CC3)c2)[C@H](C(=O)NC2CC(F)(F)C2)c2ccccc2Cl)c1` [Compound 140, (S)—N—((S)-1-(2-Xhlorophenyl)-2-(3,3-difluorocyclobutylamino)-2-oxoethyl)-1-(4-cyanopyridin-2-yl)-N-(3-(1-hydroxycyclopropyl)phenyl)-5-oxopyrrolidine-2-carboxamide], for which the IC50 is below 100 nM.
